Data set [1] relates to S. aureus or P. aeruginosa membrane. Put plainly: Flow cytometry with propidium iodide. The format is cell-based. The conditions noted are these: 2×MIC, 1 hour at 37° C. The protocol:
Specifically, S. aureus or P. aeruginosa was treated for 1 hour at 37° C. with the mother peptide Hp1404, or Hp1404-T1c, Hp1404-T1d or Hp1404-T1e peptide (at concentration of 2×MIC). After that, the supernatant was removed by centrifuge (10,000 rpm) and stained with propidium iodide (PI, concentration of 10 μg/ml) for 30 minutes at 4° C. Thereafter, unbound propidium iodide was removed by centrifuge, and the problem of cell aggregation phenomenon was solved by adding physiological saline (PBS) in an amount of 1 ml.
For orientation: In flow cytometry, cells or beads pass a laser one at a time.

Data set [2] concerns plasmid DNA (pRSETB). The data set can be described thus: Binding between antimicrobial peptide and DNA (gel electrophoresis). The conditions noted are these: peptide/DNA ratio 0.25:1 to 4:1, 10 minutes at 37° C. The protocol:
To figure out the working mechanism of the synthetic peptides of the present invention for showing the antimicrobial activity, electrophoresis was carried out to examine the possible binding of synthetic peptides, i.e., Hp1404, […], Hp1404-T1d and Hp1404-T1e, to DNA as an internal material of bacteria.
Specifically, after reacting the plasmid DNA (pRSETB, 260 ng) with the peptide at different ratio (i.e., peptide/DNA ratio is as follows for lane number 1 to lane number 8: DNA only, 0.25:1, 0.5:1, 1:1, 1.5:1, 2:1, 3:1, and 4:1. respectively) for 10 minutes at 37° C., they were subjected to electrophoresis using 1% agarose gel followed by ethidium bromide (EtBr) staining and UV visualization.

In data set [3] the test system is erythrocytes of a mouse (Balb/c). The data set can be described thus: Hemolytic activity. The format is cell-based. The method, then:
To compare the cytotoxicity among the peptides that are produced by the method of Example 1, erythrocyte hemolytic activity of the synthesized peptide was measured.
Specifically, erythrocytes of a mouse (Balb/c, 6 week old, female) were diluted in physiological saline (PBS, pH 7.0) to have concentration of 8%, and then subjected to a treatment with Hp1404, Hp1404-T1, Hp1404-T1a, Hp1404-T1b, Hp1404-T1c, Hp1404-T1d or Hp1404-T1e, each at concentration of 6.25, 12.5, 25.0, 50.0, 100.0 and 200.0 μM/well, respectively, followed by a reaction for 1 hour at 37° C. After that, the amount of hemoglobin contained in a supernatant collected by centrifuge at 1,000×g was determined by measuring the absorbance at a wavelength of 414 nm. As a control group to be used as a reference for cell disruption level, the supernatant collected by a treatment with 1% Triton X-100 (Sigma, USA) and a reaction for 1 hour at 37° C. was used to measure the absorbance. By setting the resulting absorbance value at 100%, the hemolytic activity of each peptide was calculated using the following mathematical formula 1. Erythrocyte disrupting ability (hemolysis) (%)=(Absorbance A−Absorbance B)/(Absorbance C−Absorbance B)×100 [Mathematical formula 1] (in the above formula, Absorbance A indicates the absorbance of a reaction solution treated with each peptide, in which the absorbance is measured at a wavelength of 414 nm; Absorbance B indicates the absorbance of a reaction solution treated with PBS, in which the absorbance is measured at a wavelength of 414 nm; and Absorbance C indicates the absorbance of a reaction solution treated with 1% Triton X-100, in which the absorbance is measured at a wavelength of 414 nm).

The subject of data set [4] is S. aureus (ATCC 25923). Put plainly: Anti-biofilm activity (crystal violet). It is filed as cell-based, Staphylococcus aureus. The conditions noted are these: 24 hours at 37° C. The method, then:
To compare the antimicrobial activity among the peptides produced by the method of Example 1, the inventors of the present invention measured the biofilm inhibitory concentration value of the peptide showing no dissociation of bacterial cells.
Specifically, among the bacterial strains described in the above Table 2, bacteria showing favorable biofilm forming were cultured to a mid-log phase in each medium. Then, after dilution to bacterial cell concentration of 5×10^4 cells/100 μl, the cells were inoculated to a microtiter plate (PSL). Thereafter, Hp1404, Hp1404-T1c, Hp1404-T1d or Hp1s404-T1e peptide which has been synthesized in Example 1 above was diluted, 1/10 times for each, with 10 mM sodium phosphate (pH 7.2) solution in a 96-well plate. After adding the cells (10 μl) to a plate, the cells were cultured for 24 hours at 37° C. After removing the supernatant completely, the cells were fixed with 100% methanol for 15 minutes and reacted for 1 hour with Crystal violet staining solution followed by rinsing for 3 times. Then, after dissolving in 95% ethanol, the absorbance was measured at a wavelength of 595 nm by using a microtiter plate reader to determine the biofilm minimal inhibitory concentration value of each bacterial strain.

In data set [5] the test system is S. aureus. Put plainly: MIC, S. aureus. It is filed as cell-based, Staphylococcus aureus. The conditions noted are these: S. aureus (ATCC 25923), 18 hours at 37° C. From the text: (§1) To compare the antimicrobial activity among the peptides produced by the method of Example 1, the inventors of the present invention measured the minimal growth inhibitory concentration (MIC), which is minimum concentration of the peptide showing no dissociation of bacterial cells.
(§2) Specifically, the bacterial strain described in the following Table 2 was purchased and cultured to a mid-log phase in each medium with a composition suitable for each strain. Then, after dilution to bacterial cell concentration of 2×10^4 cells/100 μl, the cells were inoculated to a microtiter plate (NUNC, USA). Thereafter, Hp1404-T1, Hp1404-T1a, Hp1404-T1b, Hp1404-T1c, Hp1404-T1d or Hp1404-T1e peptide which has been synthesized in Example 1 above was subjected to serial dilution, ½ times for each, with BSA (bovine serum albumin) solution in a 96-well plate. After adding the cells to a plate, the cells were cultured for 18 hours at 37° C. By using a microtiter plate reader (Merck Elisa reader, Germany), the absorbance was measured at a wavelength of 600 nm to determine the MIC value of each bacterial strain. As a control group, Hp1404 as a mother peptide was used.

Data set [6] relates to E. coli. The data set can be described thus: MIC, E. coli. The format is cell-based, Escherichia coli. The conditions noted are these: E. coli (ATCC 25922), 18 hours at 37° C.
Text: as §1, §2

Data set [7] concerns L. monocytogenes. Put plainly: MIC, L. monocytogenes. It is filed as cell-based, Listeria monocytogenes. The conditions noted are these: L. monocytogenes (KCTC 3710), 18 hours at 37° C.
Text: as §1, §2

Where no end group is shown, it is not given here.

Consider GILGKLWEGVKSIF-NH2 [Hp1404], for which, in data set [1], the “propidium iodide fluorescence signal shift (membrane damage)” value is “bacteria membrane was damaged”. In addition, the “binding to DNA” value in data set [2] is given as “did not bind to any DNA”. The Erythrocyte disrupting ability in data set [3] (peptide concentration 6.25 μM) was 0.01%; in data set [3] (peptide concentration 12.5 μM) it was 2.16%; in data set [3] (peptide concentration 25 μM), 11.01%; in data set [3] (peptide concentration 50 μM) it was 55.41%; in data set [3] (peptide concentration 100 μM) it was 92.64%; in data set [3] (peptide concentration 200 μM, 1 hour at 37° C., relative to 1% Triton X-100), 100%. The “Biofilm minimal inhibitory concentration” value in data set [4] stood at 3.13 µM. Also, the results for the Minimal inhibitory concentration in data set [5], in data set [6] and in data set [7] were 3.13 µM, 6.25 µM and 3.13 µM, respectively.

For the substance ILKKLLKKVKKI-NH2 [Hp1404-T1e], the “propidium iodide fluorescence signal shift (membrane damage)” value in data set [1] is recorded as “no such shift of fluorescence signal”. For the same substance, the “binding to DNA” value in data set [2] is “bind to DNA”. Also, the Erythrocyte disrupting ability in data set [3] (peptide concentration 6.25 μM) was 0.10%; in data set [3] (peptide concentration 12.5 μM), 0.28%; in data set [3] (peptide concentration 25 μM), 0.41%; in data set [3] (peptide concentration 50 μM), 0%; in data set [3] (peptide concentration 100 μM) it was 0.15%. In data set [4], the “Biofilm minimal inhibitory concentration” value came out at 12.5 µM. For the same substance, the Minimal inhibitory concentration in data set [5] was 3.13 µM; in data set [6], above 25 µM; in data set [7] it was above 25 µM.

Turning to ILKKLLKKVKSI-NH2 [Hp1404-T1d], the “propidium iodide fluorescence signal shift (membrane damage)” value in data set [1] is “no such shift of fluorescence signal”. In addition, the “binding to DNA” value in data set [2] is given as “bind to DNA”. In addition, the Erythrocyte disrupting ability in data set [3] (peptide concentration 6.25 μM), in data set [3] (peptide concentration 12.5 μM), in data set [3] (peptide concentration 25 μM), in data set [3] (peptide concentration 50 μM) and in data set [3] (peptide concentration 100 μM) was 0% each time. Besides, the “Biofilm minimal inhibitory concentration” value in data set [4] stood at 6.25 µM. Further, the values for the Minimal inhibitory concentration in data set [5], in data set [6] and in data set [7] were 6.25 µM, above 25 µM and above 25 µM, respectively.
